pIC50: −log10 of the molar value. Structures can show the parent of a compound that is named as a salt.
How the values were obtained:
mice [1] = assay: 2-phenyl-1,4-benzoquinone-induced writhing test in mice (PQW, analgesia); format: in vivo; settings: Mus musculus, sc, read-out: PQW (% decrease)
From the text: Compounds I and II of the present invention are useful as analgesic agents due to their ability to alleviate pain in mammals. […] Exptl. Biol. Med., 95, 729 (1957)].

[2] = target: benzodiazepine recognition sites; assay: benzodiazepine (Bz) binding, rat cerebral cortex membrane preparation; settings: rat cortex membranes, 2 nM radioactive benzodiazepine, pH 6.9, 20 minutes at 0-4° C.
From the text: This assay is used to determine potential anxiolytic or anticonvulsant activity via direct interaction with benzodiazepine recognition sites in a membrane preparation obtained from rat brain.
Benzodiazepine is a widely prescribed phychoactive agent. It has various pharmacological properties, including anti-anxiety, anticonvulsant, muscle relaxant and hypnotic effects. The relationships between the pharmacological activities of this compound and the GABA receptor-chlorideionophore complex have been studied in the past. The values of IC50 listed in Table II were determined in the following manner. See Squires and Braestrup, "Benzodiazepine Receptors in Rat Brain", Nature, 266, 732-734 (1977). […]
a. 78.1 g of Tris-HCl q.s. to 1 liter b. 60.6 g of Tris-base q.s to 1 liter c. Adjust pH of Tris HCl to 6.9 at 25° C. by adding Tris base to obtain 0.5M Tris buffer, pH 6.9. d. Make a 1:10 dilution with distilled H2 O to obtain 0.05M Tris buffer, pH 6.9 2. 0.32M sucrose: 21.9 g of sucrose q.s. to 200 ml
3. Radioactive benzodiazepine: this marker compound is made up to a concentration of 80 nM and 50 μl of the solution is added to each tube, which yields a final concentration of 2 nM in the assay.
4. Test Compounds: 1 mM stock solution is made up in a suitable vehicle and serially diluted, such that the final concentration in the assay ranges from 10^-5 to 10^-8 M.
Male Wistar rats are decapitated and the brain rapidly removed. The cerebral cortices are removed, weighed and homogenized with a homogenizer in 20 volumes of ice-cold 0.32M sucrose. This homogenate is contrifuged at 1,000 g for 10 minutes, the pellet is discarded and the supernatant is recentrifuged at 30,000 g for 20 minutes. The resulting membrane pellet is resuspended in 40 volumes of 0.05M Tris buffer, pH 6.9.
1 ml 0.05M Tris buffer, pH 6.9
70 μl 0.5M Tris buffer, pH 6.9
50 μl radioactive benzodiazepine solution
20 μl vehicle or a solution containing an appropriate concentration of test drug 300 μl tissue suspension prepared above
A tube containing the […] listed above is incubated at 0°-4° C. in an ice bath. A 300 μl aliquot of the tissue suspension is added to the tube and the sample is then incubated for 20 minutes at 0°-4° C. and thereafter vacuum-filtered using a suitable filter. The filter is immediately rinsed with three 5 ml washes of ice-cold Tris buffer, pH 6.9. The radioactivity of the filter is counted in 10 ml of a counting cocktail. The value of the radioactive counting obtained for a sample containing a test drug is compared to the counting obtained for the sample not containing the test drug and the ratio between the two computed. The IC50 value for a given test drug is defined as that concentration of the test drug at which said ratio becomes 50% (IC stands for inhibitory concentration).

rats = assay: Geller-conflict paradigm with rats (anxiolytic); format: in vivo; settings: i.p., CRF-conflict responding versus previous day's control trial
From the text: Compounds I and II of the present invention are useful as anxiolytic agents. […] See Geller, Irving and Seifter, Psychopharmacologia Vol. 1, 482-492 (1962). Male rats are used as test subjects. They are housed individually and food and water are available ad libitum until they are 300 to 400 grams prior to the start of training. Subsequently they are food deprived until their body weight is reduced to approximately 80% of original and it is maintained at this level by a restricted food diet.
The programming and test equipment consists of solid state devices, shockers and cages within sound-attenuated environmental enclosures. The data is recorded on both solid state print-out counters and cumulative recorders. The cages are equipped with a houselight, a single-lever, cue-lights, a liquid dipper, a speaker and a grid-floor connected to a shocker. Sweetened condensed milk delivered by the liquid-dipper serve as the positive reinforcement for all subjects.
The subjects are trained to lever-press for the milk reward in two distinct response-reward sections. In the anxiety or "conflict" segment, signaled by onset of both tone and cue-lights, a dipper of milk is delivered in response to each lever-press (CRF schedule of reinforcement). However lever presses during this period are also accompanied by a 40 m sec pulse of aversive footshock through the grid-floor. This creates a "conflict between (1) easy access to milk reward and (2) the simultaneous presentation of a painful foot-shock. This "conflict" period is 3 minutes in duration.
During the other segment of this paradigm, the lever presses produces a dipper of milk only at variable intervals of time from 60 to 210 seconds with an average reward of once per 2 minutes (VI-2 min.). No shocks are ever administered during this VI phase of testing which is 15 minutes in duration.
The test procedure consists of four 15 minute (non-shock) VI segments where reinforcement was available on a limited basis. Each VI period is followed by a 3 minute "CRF"-conflict phase when reinforcement is constantly available but always accompanied by an aversive foot-shock. The shock-level is titrated for each subject to reduce the CRF responding to a total of less than 10 lever-presses during the entire test. The rats are tested four days a week. Drugs are administered on the third day and the performance is compared to the previous days control trial. The VI responses are used to evaluate any general debilitating drug effects, while the CRF responses are used to evaluate any "anti-anxiety" effects as indicated by increased responding during the "CRF-conflict" period.
All test compounds are administered by intraperitoneal injection in volumes of 10 cc/kg and the pretreat interval is usually one-half hour.

mice [3] = assay: supramaximal electroshock assay (SES, anticonvulsant); format: in vivo; settings: Mus musculus, ip, male mice, at peak activity time
Protocol: Compounds I and II of the present invention are useful as anticonvulsant agents. […] Groups of male mice (18-30 grams) are used. Drugs are prepared using distilled water and if insoluble, a surfactant is added. Control animals receive vehicle. Drugs are routinely administered intraperitoneally. The dosage volume is 10 ml/kg.
The animal's eyes are placed across the output terminals of an A.C. shocker that delivers 206 volts rms for 300 milliseconds. Electrode paste coats the animal's eyes at the point of contact with the terminals.
Protection is expressed as normalized percent inhibition relative to vehicle control. [formula]
A time response is carried out using 6 animals per group. Animals are tested at 30, 60 and 120 minutes postdrug. Additional time periods are tested if indicated by previous tests.
When the peak activity time has been determined, a dose response is initiated, using 10 animals per group at that time period. The ED50 and 95% confidence interval are calculated by computerized probit analysis.

Structure (SMILES) | inhibition in vivo at 20 mg/kg (mice [1]) | pIC50 [2] | Geller dose/CRF: CRF (rats; dose 40 mg/kg) | ED50 (mice [3]) | Geller dose/CRF: CRF (rats; dose 60 mg/kg)
CN(C)CCNn1cccc1C(=O)c1ccccc1Cl [[2-(2-Chlorobenzoyl)-1H-pyrrol-1-yl]-2-(dimethylamino)ethylamine hydrobromide] | 72% | – | – | – | –
O=C1CN=C(c2ccccc2)c2cccn2N1 [5-Phenyl-1H-pyrrolo[1,2-b][1,2,5]triazepin-2(3H)-one] | 31% | 5.17 | – | – | –
CN(C(=O)CNC(=O)OC(C)(C)C)n1cccc1C(=O)c1ccccc1Cl [1-[N-Methyl-(t-butoxycarbonylamino)acetamido]-2-(2-chlorobenzoyl)pyrrole] | 47% | – | – | – | –
CN1C(=O)CN=C(c2ccccc2Cl)c2cccn21 [5-(2-Chlorophenyl)-1-methyl-1H-pyrrolo[1,2-b][1,2,5]triazepin-2(3H)-one] | 36% | 7.64 | 1.4 | 17.9 mg/kg | –
NCC(=O)Nn1cccc1C(=O)c1ccccc1 [1-Aminoacetamido-2-benzoylpyrrole hydrochloride] | 23% | – | – | – | –
Cc1ccc(C(=O)c2ccccc2F)n1NC(=O)CNCC(=O)Nn1c(C)ccc1C(=O)c1ccccc1F [Di-[(2-(2-fluorobenzoyl)-5-methyl-1H-pyrrol-1-yl)-2-acetamido]amine hydrochloride] | 68% | – | – | – | –
CC(C)(C)OC(=O)NCC(=O)Nn1cccc1C(=O)c1ccccc1Cl [1-[(t-Butoxycarbonylamino)acetamido]-2-(2-chlorobenzoyl)pyrrole] | 49% | – | – | – | –
CN1C(=O)CN=C(c2ccccc2F)c2ccc(Cl)n21.Cl [8-Chloro-5-(2-fluorophenyl)-1-methyl-1H-pyrrolo[1,2-b][1,2,5]triazepin-2(3H)-one hydrochloride] | 19% | 6.16 | – | 36.1 mg/kg | –
Br.CN(C(=O)CN)n1cccc1C(=O)c1ccccc1F [1-(N-Methyl-aminoacetamido)-2-(2-fluorobenzoyl)pyrrole hydrobromide] | – | > 5.00 | 11.2 | 8.2 mg/kg | –
O=C1CN=C(c2ccccc2F)c2cccn2N1 [5-(2-Fluorophenyl)-1H-pyrrolo[1,2-b][1,2,5]triazepin-2(3H)-one] | – | 6.23 | 2.4 | – | –
CCOC(=O)N(CCN(C)C)n1cccc1C(=O)c1ccccc1Cl [[2-(2-Chlorobenzoyl)-1H-pyrrol-1-yl]-2-[(dimethylamino)ethyl]carbamic acid, ethyl ester hydrobromide] | 41% | – | – | – | –
O=C1CN=C(c2ccccc2Cl)c2cccn2N1 [5-(2-Chlorophenyl)-1H-pyrrolo[1,2-b][1,2,5]triazepin-2(3H)-one] | – | 6.69 | – | – | 15
CN(C(=O)CN)n1cccc1C(=O)c1ccccc1Cl [1-(N-Methyl-aminoacetamido)-2-(2-chlorobenzoyl)pyrrole hydrobromide] | 42% | – | – | – | –
Br.CN1C(=O)CN=C(c2ccccc2)c2cccn21 [1-Methyl-5-phenyl-1H-pyrrolo[1,2-b][1,2,5]triazepin-2(3H)-one hydrobromide] | 26% | 6.47 | 22.6 | – | –
O=C(CNC(=O)OCc1ccccc1)Nn1cccc1C(=O)c1ccccc1 [1-[(Carbobenzyloxyamino)acetamido]-2-benzoylpyrrole] | 50% | – | – | – | –
CN1C(=O)CN=C(c2ccccc2F)c2cccn21.Cl [5-(2-Fluorophenyl)-1-methyl-1H-pyrrolo[1,2-b][1,2,5]triazepin-2(3H)-one hydrochloride] | 27% | 7.21 | – | 43.6 mg/kg | –
CC(C)(C)OC(=O)NCC(=O)Nn1cccc1C(=O)c1ccccc1F [1-[(t-Butoxycarbonylamino)acetamido]-2-(2-fluorobenzoyl)pyrrole] | 21% | – | – | – | –
